According to US9504747B2, “Lipids and lipid compositions for the delivery of active agents” (Novartis AG, priority 2013, dated 2016):
Values joined by “and” are separate entries in the source; they are usually repeats but may differ in a detail not shown here. Equal entries are not always repeated.

Tests used:
[1] = system: respiratory syncytial virus F protein; test: Immunization studies: anti-RSV-F titers after liposome-delivered vA317 self-replicating RNA; type: in vivo; conditions: BALB/c mice, liposomes with 0.1 μg vA317 replicon (naked control 1 μg); for anti-RSV-F titer 4wp2 pool 1 / anti-RSV-F titer 4wp2 pool 2: 4 weeks after second dose; for anti-RSV-F titer 2wp1 pool 1 / anti-RSV-F titer 2wp1 pool 2: 2 weeks after first dose; for anti-RSV-F titer 2wp2 pool 1 / anti-RSV-F titer 2wp2 pool 2: 2 weeks after second dose
Experimental: BALB/c were immunized with liposomes comprising DSPC, cholesterol, and various lipids of the invention (or, for comparison, the cationic lipid 1,2-dilinoleyloxy-N,N-dimethyl-3-aminopropane or ‘DLinDMA’). The liposomes encapsulated 0.1 μg of “vA317” self-replicating RNA replicon which encodes respiratory syncytial virus F protein (see WO2012/031043). […] Doses were given either on days 0 & 21 or days 0 & 42. Immune responses were assessed 2 weeks after each dose (2wp1, 2wp2), and in some cases also at 4 weeks after the second dose (4wp2). Four series of experiments were performed, each with its own naked control.

[2] = pKa measurement of the cationic lipid (TNS fluorescence vs pH); type: physicochemical; conditions: probe TNS (fluorescent probe), pKa of the cationic lipid of formula (I)
Experimental: Unless indicated otherwise, all pKa's referred to herein were measured at standard temperature and pressure. Also, unless otherwise indicated, all references to pKa are references to pKa measured using the following technique. 2 mM solution of lipid in ethanol was prepared by weighing the lipid and then dissolving it in ethanol. 0.3 mM solution of fluorescent probe TNS in ethanol:methanol 9:1 was prepared by first making 3 mM solution of TNS in methanol and then diluting to 0.3 mM with ethanol. An aqueous buffer containing 200 mM sodium phosphate dibasic and 100 mM citric acid was prepared. […] Using the Hamilton Microlab Star high throughput liquid handler and Hamilton run control software Software, 7.5 uL of probe/lipid mix were added to 242.5 uL of buffer in a 1 mL 96 well plate (model NUNC 260252, […] Nunc International). This was done with all twelve buffers. After mixing in 1 mL 96 well plate, 100 uL of each probe/lipid/buffer mixture was transferred to a 250 uL black with clear bottom 96 well plate (model COSTAR 3904, Corning). The fluorescence measurements are carried out on the SpectraMax M5 spectrophotometer using software SoftMax pro 5.2 and following parameters: After the measurement, the background fluorescence value of an empty well on the 96 well plate was subtracted from each probe/lipid/buffer mixture. The fluorescence intensity values were then normalized to the value at lowest pH. The normalized fluorescence intensity vs. pH chart was then plotted in the Microsoft Excel software. The twelve points were connected with a smooth line. The point on the line at which the normalized fluorescence intensity was equal to 0.5 was found. […] The pKa determined using this method is precise to about 0.1 pKa units.

[3] = Polydispersity index (PDI) of the lipid nanoparticle (dynamic light scattering); type: physicochemical; conditions: Table 4, FVII siRNA LNP
From the text: The lipid nanoparticles (LNPs) were formed by mixing equal volumes of lipids dissolved in alcohol with siRNA dissolved in a citrate buffer by an impinging jet process. […] The siRNA to total lipid ratio is approximately 0.05 (wt/wt). Where a LNP formulation contains four lipid components, the molar ratios correspond to the type of lipid as it appears in the first four columns of the table, in the order that they appear. The ratio of the lipids ranges from 20 to 70 mole percent for the cationic lipid with a target of 40-60, the mole percent of helper lipid ranges from 20 to 70 with a target of 30 to 50, the mole percent of neutral lipid ranges from 0-30, the mole percent of PEG lipid has a range from 1 to 6 with a target of 2 to 5. The concentration of siRNA solution ranges from 0.7 to 1.0 mg/mL with a target of 0.8 to 0.9 mg/mL in a sodium citrate: sodium chloride buffer pH 4-6, with a target of 4.5-5.5. The LNPs are formed by mixing equal volumes of lipid solution in ethanol with siRNA dissolved in a citrate buffer by an impinging jet process through a mixing device with ID ranging from 0.25 to 2.0 mm at a flow rate from 10 to 640 mL/min. The mixed LNP solution is held at room temperature for 0-24 hrs prior to a dilution step. […] The final product is sterile filtered and stored at 4° C. Unless indicated otherwise, all PDIs referred to herein are the PDI of the fully formed nanoparticle, as measured by dynamic light scattering on a Malvern Zetasizer. The nanoparticle sample was diluted in phosphate buffered saline (PBS) so that the count rate was approximately 200-400 kcts. The data is presented in Tables 4 and 5 as a weighted average of the intensity measure.

pKa ([2]; Table 4)	SMILES	anti-RSV-F titer 4wp2 pool 1 ([1]; Course A = days 0 & 21)	anti-RSV-F titer 4wp2 pool 2 ([1]; Course A = days 0 & 21)	anti-RSV-F titer 2wp1 pool 1 ([1]; Course A = days 0 & 21)	anti-RSV-F titer 2wp1 pool 2 ([1]; Course A = days 0 & 21)	anti-RSV-F titer 2wp2 pool 1 ([1]; Course A = days 0 & 21)	anti-RSV-F titer 2wp2 pool 2 ([1]; Course A = days 0 & 21)	further results
–	CCCCC/C=C\C/C=C\CCCCCCCCOCC(CN(C)C)OCCCCCCCC/C=C\C/C=C\CCCCC (stereo not shown) [DLinDMA, 1,2-dilinoleyloxy-N,N-dimethyl-3-aminopropane, reference compound]	26504 and 50799	28008 and 35992	–	–	–	–	anti-RSV-F titer 2wp1 pool 1 ([1]; Course B = days 0 & 42): 13; anti-RSV-F titer 2wp1 pool 2 ([1]; Course B = days 0 & 42): 4; anti-RSV-F titer 2wp2 pool 1 ([1]; Course B = days 0 & 42): 18290; anti-RSV-F titer 2wp2 pool 2 ([1]; Course B = days 0 & 42): 5538; anti-RSV-F titer 4wp2 pool 1 ([1]; Course B = days 0 & 42): 13936; anti-RSV-F titer 4wp2 pool 2 ([1]; Course B = days 0 & 42): 7020
5.59	CCCCCCCC/C=C\CCCCCCCCOc1cc(CN(C)C)cc(OCCCCCCCC/C=C\CCCCCCCC)c1 [Example 1]	–	–	–	–	–	–	pKa ([2]; Table 5): 5.59; PDI ([3]; Chol/DSPC/stealth lipid PEG-DMG, 45/44/9/2): 0.05
–	CCCCCCCC/C=C\CCCCCCCCOc1cc(OCCCCCCCC/C=C\CCCCCCCC)cc(C2OCC(CN3CCCC3)O2)c1 (stereo not shown) [Example 9]	–	–	1832	1352	29707	18788	–
–	CCCCCCCC/C=C\CCCCCCCCOc1cc(OCCCCCCCC/C=C\CCCCCCCC)cc(C2OCC(COC(=O)CN(C)C)O2)c1 (stereo not shown) [Example 12]	–	–	–	–	–	–	anti-RSV-F titer 2wp1 pool 1 ([1]; Course B = days 0 & 42): 88; anti-RSV-F titer 2wp1 pool 2 ([1]; Course B = days 0 & 42): 128; anti-RSV-F titer 2wp2 pool 1 ([1]; Course B = days 0 & 42): 4550; anti-RSV-F titer 2wp2 pool 2 ([1]; Course B = days 0 & 42): 4828; anti-RSV-F titer 4wp2 pool 1 ([1]; Course B = days 0 & 42): 4787; anti-RSV-F titer 4wp2 pool 2 ([1]; Course B = days 0 & 42): 3972
–	CCCCC/C=C\C/C=C\CCCCCCCCOc1cc(COC(=O)CCCN(C)C)cc(OCCCCCCCC/C=C\C/C=C\CCCCC)c1 [Example 13]	–	–	495	620	7157	12316	–
–	CCCCC/C=C\C/C=C\CCCCCCCCOc1cc(C(=O)OCCCN(C)C)cc(OCCCCCCCC/C=C\C/C=C\CCCCC)n1 [Example 25]	2850	1767	1217	1883	1611	1156	–
–	CCCCC/C=C\C/C=C\CCCCCCCC(=O)OCc1cc(COC(=O)CCCCCCC/C=C\C/C=C\CCCCC)cc(COC(=O)CCN(C)C)c1 [Example 29]	23930	37278	2101	3584	12529	18669	–
6.01	CCCCC/C=C\C/C=C\CCCCCCCCOc1cc(COC(=O)CCN(C)C)cc(OCCCCCCCC/C=C\C/C=C\CCCCC)n1 [Example 31]	–	–	–	–	–	–	PDI ([3]; Chol/DSPC/stealth lipid S010, 45/44/9/2): 0.049
5.57	CCCCC/C=C\C/C=C\CCCCCCCC(=O)OCCCCCCOc1cc(CN(C)C)cc(OCCCCCCOC(=O)CCCCCCC/C=C\C/C=C\CCCCC)c1 [Example 45]	–	–	–	–	–	–	–
5.93	CCCCCCCCC(CCCCCCCC)CC(=O)OCCCOc1cc(CN(C)C)cc(OCCCOC(=O)CC(CCCCCCCC)CCCCCCCC)c1 [Example 56]	–	–	–	–	–	–	–
5.9	CCCCC/C=C\C/C=C\CCCCCCCC(=O)OCCOCCOc1cc(CN(CC)CC)cc(OCCOCCOC(=O)CCCCCCC/C=C\C/C=C\CCCCC)c1 [Example 58]	–	–	–	–	–	–	–
6.09	CCCCCCCCCCCC(=O)OCCCCCCOc1cc(CN(C)C)cc(OCCCCCCOC(=O)CCCCCCCCCCC)c1 [Example 59]	–	–	–	–	–	–	–
–	CCCCC/C=C\C/C=C\CCCCCCCCNC(=O)c1cc(COC(=O)CCCN(C)C)cc(C(=O)NCCCCCCCC/C=C\C/C=C\CCCCC)c1 [Example 66]	75	75	75	75	75	75	–
